The values below come from patent US10428080B2, “TBK/IKK inhibitor compounds and uses thereof” (Merck Patent GmbH, priority 2015, dated 2019).

Broadly, the IC50 is the point on the concentration scale where inhibition reaches its midpoint.

Molecules are shown by their SMILES. Like-named read-outs stand apart in the source and are kept apart here.

The subject of test [1] is phosphorylation of the IRF-3 protein in MDA-MB-468 cells. Briefly: pIRF3 immunocytochemistry cell based assay. As for the experimental part: The purpose of the pIRF3 immunocytochemistry cell based assay was to identify small molecules which modulates TBK/IKKe kinase activity through on target substrate phosphorylation of the IRF-3 protein. On the first day of the experiment, MDA-MB-468 cells were plated in 384 well, black, clear-bottom, Poly D lysine coated plates at a density of 5000 cells/well in 45 ul of complete DMEM and allowed to adhere overnight. On the second day compounds were added to cells at a starting concentration of 10 uM with a serial dilution of 3-fold for a total of 10 points. The cells were incubated for 1 hr at 37° C. Cells were then stimulated with Poly(I:C) at a final concentration of 10 ug/ml, and were incubated for 2 hr at 37° C. Following the incubation, media was removed from the wells and the cells were fixed with 4% PFA for 15 min at RT. Cells were washed at least 3 times with PBS, and then permeabilized with ice-cold methanol for 10 min at RT. The washing step was repeated and the cells were then blocked using 10% goat serum/1% BSA, made up in PBS and allowed to incubate at RT for 1 hr. The cells were washed again and then treated with an anti-pIRF3 antibody at 4° C. overnight (1:250 dilution of Abcam ab76493 in PBS containing 1% BSA). On the third day the primary antibody was washed off and pIRF3 was detected by adding the secondary antibody conjugated to AlexaFluor488 (1:200 dilution of secondary antibody in PBS containing 1% BSA) for 1 hr at RT. Cells were washed and then counterstained with PI/RNase staining buffer for 15 min at RT and read on the Acumen Explorer laser scanning cytometer. The percentage of phosphorylation of the IRF-3 protein was calculated using the following algorithm, a modified version of the mean half width intensity (pIRF3 staining)/(PI staining or # of cells)×100%). IC50 curves were generated using the Genedata software.

The next test addresses T1, IKKε (Homo sapiens, UniProt Q14164).
T1 sequence (Q14164 1-716): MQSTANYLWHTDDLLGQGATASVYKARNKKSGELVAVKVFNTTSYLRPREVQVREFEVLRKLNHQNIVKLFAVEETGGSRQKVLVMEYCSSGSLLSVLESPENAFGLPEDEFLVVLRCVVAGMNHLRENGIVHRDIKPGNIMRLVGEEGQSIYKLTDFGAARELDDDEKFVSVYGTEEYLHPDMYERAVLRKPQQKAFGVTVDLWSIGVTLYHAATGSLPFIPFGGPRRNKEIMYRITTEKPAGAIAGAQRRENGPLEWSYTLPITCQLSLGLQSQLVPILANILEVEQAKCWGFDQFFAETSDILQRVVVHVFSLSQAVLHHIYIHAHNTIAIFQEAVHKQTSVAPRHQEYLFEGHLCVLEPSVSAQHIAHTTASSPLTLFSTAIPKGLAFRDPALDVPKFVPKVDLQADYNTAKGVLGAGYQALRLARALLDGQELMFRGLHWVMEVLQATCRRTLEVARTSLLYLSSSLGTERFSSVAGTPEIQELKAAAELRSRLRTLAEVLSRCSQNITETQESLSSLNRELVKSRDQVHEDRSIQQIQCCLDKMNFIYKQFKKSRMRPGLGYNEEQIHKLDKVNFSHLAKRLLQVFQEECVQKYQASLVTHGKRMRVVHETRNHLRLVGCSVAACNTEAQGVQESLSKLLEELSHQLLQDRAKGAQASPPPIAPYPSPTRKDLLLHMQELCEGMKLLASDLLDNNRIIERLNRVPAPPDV
Briefly: IKKe Biochemical Assay. As to conditions: read-out: IKKε IC50. A digest of the protocol: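 Activity was measured as mobility-shift separation of phosphorylated from unphosphorylated substrate on a LabChip EZ Reader. Compound was titrated from 30 uM final in 10 points, 1:4 steps, with 1% DMSO, and enzyme plus substrate reacted 90 min at 25° C before stop buffer. Control wells held 10 uM staurosporine.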

A further test addresses T2, TBK1 (Homo sapiens, UniProt Q9UHD2).
T2 sequence (Q9UHD2 1-729): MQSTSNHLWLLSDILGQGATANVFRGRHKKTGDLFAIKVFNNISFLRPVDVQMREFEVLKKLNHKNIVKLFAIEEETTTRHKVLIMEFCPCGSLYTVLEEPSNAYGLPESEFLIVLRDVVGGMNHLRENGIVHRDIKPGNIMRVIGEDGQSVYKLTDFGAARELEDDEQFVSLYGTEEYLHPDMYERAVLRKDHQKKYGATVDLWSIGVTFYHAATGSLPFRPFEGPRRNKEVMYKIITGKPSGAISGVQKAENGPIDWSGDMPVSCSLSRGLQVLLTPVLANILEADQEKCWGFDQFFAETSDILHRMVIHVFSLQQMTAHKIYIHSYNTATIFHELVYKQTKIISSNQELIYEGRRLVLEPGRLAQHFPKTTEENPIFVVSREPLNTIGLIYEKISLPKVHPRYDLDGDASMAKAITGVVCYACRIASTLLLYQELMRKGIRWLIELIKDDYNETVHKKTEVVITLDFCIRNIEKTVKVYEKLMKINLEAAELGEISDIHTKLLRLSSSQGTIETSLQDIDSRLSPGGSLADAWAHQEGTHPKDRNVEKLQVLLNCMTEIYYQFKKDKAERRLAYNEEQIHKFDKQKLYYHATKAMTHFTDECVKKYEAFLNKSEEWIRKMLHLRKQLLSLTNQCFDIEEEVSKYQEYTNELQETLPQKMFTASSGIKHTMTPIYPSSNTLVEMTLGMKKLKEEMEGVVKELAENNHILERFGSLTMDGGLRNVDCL
In words: TBK Biochemical Assay. Particulars: read-out: TBK1 IC50. A digest of the protocol: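 Caliper LabChip mobility-shift readout of substrate and product after 90 min of TBK1 reaction at 25° C and stop-buffer addition. Compounds tested in 1:4 serial dilution over 10 points from 30 uM final at 1% DMSO; staurosporine 10 uM final defines full inhibition.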

The mark [2] stands for this setting: Homo sapiens, MDA-MB-468 cells, Poly(I:C) stimulation, read-out: pIRF3 IC50.

Regarding `COc1cc(C(=O)N(C)CCO)cnc1-c1cc2ncc(F)c(-c3ccc(OC4CCOCC4)c(C#N)c3)c2o1` [Compound 334, 6-[7-[3-cyano-4-(oxan-4-yloxy)phenyl]-6-fluorofuro[3,2-b]pyridin-2-yl]-N-(2-hydroxyethyl)-5-methoxy-N-methylpyridine-3-carboxamide], the IC50 was 0.1 to 1 µM in test [1] (setting [2]), less than 0.1 µM on IKKε and less than 0.1 µM on TBK1.

In the case of `COc1cc(C(=O)NCC(C)(C)N(C)C)ccc1-c1cc2nccc(-c3ccc(NC4CCOCC4)c(C#N)c3)c2o1` [Compound 499, 4-{7-[3-Cyano-4-(tetrahydro-pyran-4-ylamino)-phenyl]-furo[3,2-b]pyridin-2-yl}-N-(2-dimethylamino-2-methyl-propyl)-3-methoxy-benzamide], the IC50 in test [1] (setting [2]) was 0.1 to 1 µM; on IKKε, less than 0.1 µM; at TBK1, less than 0.1 µM.

For the molecule `COc1cc(C(=O)N2CCN(C)CC2)cnc1-c1cc2nccc(-c3ccc(N4CC[C@@H](F)C4)c(C#N)c3)c2o1` [Compound 462, 2-(3(R)-fluoropyrrolidin-1-yl)-5-(2-[3-methoxy-5-[(4-methylpiperazin-1-yl)carbonyl]pyridin-2-yl]furo[3,2-b]pyridin-7-yl)benzonitrile], the IC50 (in test [1] (setting [2]); at IKKε; at TBK1) was less than 0.1 µM throughout.

With `COc1cc(C(=O)NC2C3COCC32)cnc1-c1cc2nccc(-c3ccc(N4CC[C@H](F)C4)c(C#N)c3)c2o1` (stereo in doubt) [Compound 465, 6-[7-[3-cyano-4-(3-fluoropyrrolidin-1-yl)phenyl]furo[3,2-b]pyridin-2-yl]-5-methoxy-N-[3-oxabicyclo[3.1.0]hexan-6-yl]pyridine-3-carboxamide], the IC50 in test [1] (setting [2]) was 0.1 to 1 µM; at IKKε, less than 0.1 µM; at TBK1, less than 0.1 µM.

Take `COc1cc(C(=O)NCC2(F)COC2)ccc1-c1cc2nccc(-c3ccc(OC4CCOCC4)c(C#N)c3)c2o1` [Compound 69, 4-{7-[3-Cyano-4-(tetrahydro-pyran-4-yloxy)-phenyl]-furo[3,2-b]pyridin-2-yl}-N-(3-fluoro-oxetan-3-ylmethyl)-3-methoxy-benzamide]: the IC50 in test [1] (setting [2]) is 0.1 to 1 µM; at IKKε, less than 0.1 µM; on TBK1, less than 0.1 µM.

As to `COc1cc(C(=O)N2CC3CCC(C2)O3)ccc1-c1cc2nccc(-c3ccc(OC4CCOCC4)c(C#N)c3)c2o1` [Compound 58, 5-{2-[2-Methoxy-4-(8-oxa-3-aza-bicyclo[3.2.1]octane-3-carbonyl)-phenyl]-furo[3,2-b]pyridin-7-yl}-2-(tetrahydro-pyran-4-yloxy)-benzonitrile], the IC50 (in test [1] (setting [2]); on IKKε; at TBK1) was less than 0.1 µM each time.

For the molecule `COc1cc(C(=O)NC2C3COCC32)ccc1-c1cc2nccc(-c3ccc(N4CC[C@@H](F)C4)c(C#N)c3)c2o1` (stereo partly drawn) [Compound 498], the IC50 was 0.1 to 1 µM in test [1] (setting [2]), less than 0.1 µM on IKKε and 0.1 to 1 µM on TBK1.

As for `COc1cc(C(=O)N2CC3CN(C)CC3C2)ccc1-c1cc2nccc(-c3ccc(OC4CCOCC4)c(C#N)c3)c2o1` (stereo not drawn) [Compound 9, 5-{2-[2-Methoxy-4-(5-methyl-hexahydro-pyrrolo[3,4-c]pyrrole-2-carbonyl)-phenyl]-furo[3,2-b]pyridin-7-yl}-2-(tetrahydro-pyran-4-yloxy)-benzonitrile], the IC50 (in test [1] (setting [2]); on IKKε; at TBK1) was less than 0.1 µM each time.

`COc1cc(-c2cc3nccc(-c4ccc(OC5CCOCC5)c(C#N)c4)c3o2)ccc1C(=O)N(C)C` [Compound 470, 4-[7-[3-cyano-4-(oxan-4-yloxy)phenyl]furo[3,2-b]pyridin-2-yl]-2-methoxy-N,N-dimethylbenzamide]: the IC50 is 0.1 to 1 µM in test [1] (Homo sapiens, MDA-MB-468, read-out: pIRF3 IC50); less than 0.1 µM on IKKε; less than 0.1 µM on TBK1.

Regarding `COc1cc(C(=O)N2CCCCC2)ncc1-c1cc2nccc(-c3ccc(N4CC[C@@H](F)C4)c(C#N)c3)c2o1` (stereo in doubt) [Compound 385], the IC50 in test [1] (MDA-MB-468 cells, Poly(I:C) stimulation, read-out: pIRF3 IC50) is less than 0.1 µM; on IKKε, less than 0.1 µM; at TBK1 it was less than 0.1 µM.

For the molecule `COc1cc(C(=O)N(C)OC)ccc1-c1cc2nccc(-c3ccc(OC4CCOCC4)c(C#N)c3)c2o1` [Compound 53, 4-{7-[3-Cyano-4-(tetrahydro-pyran-4-yloxy)-phenyl]-furo[3,2-b]pyridin-2-yl}-3,N-dimethoxy-N-methyl-benzamide], the IC50 was 0.1 to 1 µM in test [1] (setting [2]), less than 0.1 µM on IKKε and less than 0.1 µM at TBK1.

For the molecule `COc1cc(C(=O)N(C)C)ncc1-c1cc2nccc(-c3ccc(N4CCC(F)C4)c(C#N)c3)c2o1` (stereo in doubt) [Compound 390, 5-{7-[3-Cyano-4-((R)-3-fluoro-pyrrolidin-1-yl)-phenyl]-fluro[3,2-b]pyridin-2-yl}-4-methoxy-pyridine-2-carboxylic acid dimethylamide], the half-maximal inhibitory concentration (IC50) in test [1] (setting [2]) was 0.1 to 1 µM; at IKKε, less than 0.1 µM; on TBK1, less than 0.1 µM.

For `COc1cc(C(=O)NC2CN(C(C)C)C2)ccc1-c1cc2nccc(-c3ccc(OC4CCOCC4)c(C#N)c3)c2o1` [Compound 364, 4-(7-(3-cyano-4-(tetrahydro-2H-pyran-4-yloxy)phenyl)furo[3,2-b]pyridin-2-yl)-N-(1-isopropylazetidin-3-yl)-3-methoxybenzamide], the IC50 in test [1] (setting [2]) is 0.1 to 1 µM; on IKKε it was less than 0.1 µM; at TBK1 it was less than 0.1 µM.

On to `COc1cc(C(=O)N(C)C)ccc1-c1cc2nccc(-c3ccc(OC4CCOC4)c(C#N)c3)c2o1` (stereo not drawn) [Compound 90, 4-{7-[3-Cyano-4-(tetrahydro-furan-3-yloxy)-phenyl]-furo[3,2-b]pyridin-2-yl}-3-methoxy-N,N-dimethyl-benzamide], for which the IC50 in test [1] (setting [2]) was 0.1 to 1 µM; at IKKε, less than 0.1 µM; at TBK1 it was less than 0.1 µM.
